From article PMC7567791 (Scientific Reports, 2020)

Molecular target: T1, μ-OR (Homo sapiens, UniProt P35372)
T1 construct: expressed in transfected cells; host or cells: HEK293A parental, ΔGRK2, ΔGRK3, ΔGRK2/3 (and Δβ-arrestin1/2) cells
Type: cell-based

T1 sequence (P35372 whole entry): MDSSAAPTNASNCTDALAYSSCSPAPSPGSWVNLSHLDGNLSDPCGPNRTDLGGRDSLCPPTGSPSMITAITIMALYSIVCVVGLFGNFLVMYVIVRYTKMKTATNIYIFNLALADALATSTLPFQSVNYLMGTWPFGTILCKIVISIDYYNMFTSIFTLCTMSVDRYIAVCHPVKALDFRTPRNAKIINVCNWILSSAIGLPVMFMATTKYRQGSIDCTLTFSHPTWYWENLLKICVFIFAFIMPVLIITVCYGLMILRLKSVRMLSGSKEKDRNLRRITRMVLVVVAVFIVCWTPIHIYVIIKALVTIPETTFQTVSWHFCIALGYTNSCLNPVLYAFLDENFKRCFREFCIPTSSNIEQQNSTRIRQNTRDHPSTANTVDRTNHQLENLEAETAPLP

## C[C@@H](NC(=O)[C@@H](N)Cc1ccc(O)cc1)C(=O)NCC(=O)N(C)[C@@H](Cc1ccccc1)C(=O)NCCO [DAMGO, D-Ala(2)-mephe(4)-gly-ol(5))enkephalin]
  time of peak in β-arrestin2 recruitment to μ-OR-EYFP: 6 min
